Consider five molecules from US20030203035A1, “Allergen neutralization compositions” (The Procter & Gamble Company, priority 2000, published 2003).

For the assay, the target named is T1, Der f 2 mite extract (Dermatophagoides farinae, UniProt Q00855).
T1 construct: Add 1.0 ml of 20 ug/ml Der f 2 mite extract; from tissue; host or cells: house dust mite extract (Dermatophagoides farinae)
T1 sequence (Q00855 18-146): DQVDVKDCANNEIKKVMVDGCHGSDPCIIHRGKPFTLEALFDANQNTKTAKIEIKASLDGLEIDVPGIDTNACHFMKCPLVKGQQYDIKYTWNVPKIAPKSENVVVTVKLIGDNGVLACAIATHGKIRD
Put plainly: Efficacy Determination Protocol, ELISA (allergen neutralization). It is filed as biochemical. The following applies: for Average Absorbance / % of Allergen Remaining: 1.4 wt.% of ion; for Average Absorbance: 490 nm, water control 1.7; for % of Allergen Remaining: Der f 2, normalized to water control = 100. An excerpt:
The efficacy of an allergen neutralization composition can be determined by the ELISA protocol. Enzyme-linked immunosorbent assay (“ELISA”) is a highly sensitive assay technique for detection and measurement of antigens or antibodies in solution. The assay uses enzyme-linked antigens or antibodies to amplify an antigen-antibody reaction. A single enzyme-linked antibody-antigen complex can convert orders of magnitude more of colorless substrate molecules into detectable colored products, thus considerably amplifying the original antigen-antibody reaction. The antigen or antibody is adsorbed onto the surface of the well of a microtiter plate, and all the relevant reactions take place in solution inside the well. While the following protocol will be easily understood by those skilled in the art, for a more detailed explanation please see Konishi, E. and Uehara, K. Enzyme-linked immunosorbent assay for quantifying antigens of Dermatophagoides farinae and D. pteronyssinus (Acari: Pyroglyphidae) in house dust samples, 1990, Entomologist Society of America, 27 (6), p. 993-998.
It is understood that those skilled in the art of allergen suppression will be aware of numerous variations to the protocol given below. For example, the monoclonal antibody may be substituted with a similar antibody, for example Der f 1 for Der f 2. But a standard, in this case water, is used and the results for the samples that contain active ingredients are normalized against the standard and the results reported as percentage of allergen remaining That is, the amount of allergen that is not neutralized. Thus, the allergen neutralization results for similar, but not identical antibodies should be substantially the same when normalized to the standard. Both Der f 1 and Der f 2 were tested for various compositions, but Der f 2 was chosen as the standard for the present Efficacy Determination Protocol because it is more difficult to neutralize. To be clear, the values for the % of allergen remaining that are reported in Table I will generally improve (that is, decrease) when tested with Der f 1.
At least two samples are prepared. One sample contains only distilled water and samples of one or more allergen neutralization compositions containing the allergen neutralization active, for example ZnCl2, tannin, etc. The samples are all treated according to the same protocol, and the distilled water sample is used as the control. All samples are prepared as follows:
1) Add 1.0 ml of 20 ug/ml Der f 2 mite extract to 0.8 ml of the sample composition (either the allergen neutralization composition or water for the control). Mix well and let sit for 1 hour at room temp.
2) Add 2.2 ml of 20% skim milk in Phosphate Buffer Saline (PBS).
3) Mix well by vortexing and centrifuge at 12000 rpm (approx. 17000×g) for 1 hour.
4) The supernatant is used for the ELISA protocol.
Each well of a microplate is coated at 4° C. overnight with 100 μl of Der f 2 monoclonal antibody (clone 15E11, from Asahi Breweries., AB-A-4) at a protein concentration of […] of Phosphate Buffer Saline (PBS), pH 7.4 containing 0.1% sodium azide. The monoclonal antibody is discarded and the plate is incubated with 100 μL of 1% BSA PBS containing 0.1% sodium azide for 1 hour. The plate is washed 3 times with PBS containing 0.05% Tween 20 (PBS-T). 100 μl of an allergen sample is added and incubated for 1 hour at 37° C.
Use 3× dilutions of a reference Dermatophagoides farinae crude extract (commercially available from LSL) to make the standard curve. The curve is made using 6.9 nanogram-mite extract equivalent/ml to 5 microgram-mite extract equivalent/ml. Wash plate with PBS-T for 3 times. 100 μl of Horse Radish Peroxidase (HRP) conjugated anti Der f 2 antibody (clone 13A4) is added at 40 ng/ml and the plate is incubated at 37° C. for 1 hour. The plate is then washed with PBS-T 3 times and then washed with water 3 times. […]

[1] abbreviates: weight % of metal ion in the composition, inferred from Table III.

In the case of `[Cl][Fe][Cl]` [FeCl2], where the note is “pH 2.9”, the “Average Absorbance” value worked out at 0.84 and the “% of Allergen Remaining” value is listed as 44%.

With `O=S(=O)([O-])[O-].[Fe+2]` [FeSO4], for the setting “pH 3.5”, the “Average Absorbance” value is given as 1.13 and the “% of Allergen Remaining” value amounted to 54%.

`[Cl][Sn][Cl]` [SnCl2]: where the note is “pH 2.1”, the “Average Absorbance” value is on record as 0.54 and the “% of Allergen Remaining” value is given as 32%. Where the note is “pH 3.2”, the “Average Absorbance” value came out at 0.25 and the “% of Allergen Remaining” value turned out to be 18%. Further, under setting [1], the “effective amount if 80% removal is necessary” value is “about 1.4%” and the “effective amount to remove 50% of allergens” value is “less than 1.4%”.

Turning to `O=S(=O)([O-])[O-].[Sn+2]` [SnSO4], for the setting “pH 2.0”, the “Average Absorbance” value is reported as 0.28 and the “% of Allergen Remaining” value stood at 22%.

On to `[Cl-].[Cl-].[Zn+2]` [ZnCl2, Zinc chloride], for which, for the setting “pH 3.6”, the “Average Absorbance” value is recorded as 0.70 and the “% of Allergen Remaining” value stood at 34%.
